Measurements taken from PubChem BioAssay AID2060889 (Molecular Pharmacology Branch, DTP, NCI, 2025).
pIC50: −log10 of the molar value.

Test system: LG0567-F671-PDC complex spheroids viability
Test: Anticancer human tumor LG0567-F671-PDC patient-derived lung adenocarcinoma cell line growth inhibition [RAS]
Conditions: for pIC50: curve of first compound; for viability, T/C: stronger effect = lower value
How it was run: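 Multi-cell-type spheroids: tumor cells plus HUVEC endothelial cells and mesenchymal stem cells. RAS-pathway inhibitors were combined with targeted agents, each dosed in half-log steps down from clinical Cmax, or from 10 microM when Cmax was unknown.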

[1] = second compound 0.000949 µM, first compound 0.000949 µM
[2] = second compound 0.000949 µM, first compound 0.003 µM
[3] = second compound 0.000949 µM, first compound 0.00949 µM
[4] = second compound 0.000949 µM, first compound 0.03 µM
[5] = second compound 0.000949 µM, first compound 0.0949 µM
[6] = second compound 0.000949 µM, first compound 0.3 µM
[7] = second compound 0.003 µM, first compound 0.000949 µM
[8] = second compound 0.003 µM, first compound 0.003 µM
[9] = second compound 0.003 µM, first compound 0.00949 µM
[10] = second compound 0.003 µM, first compound 0.03 µM
[11] = second compound 0.003 µM, first compound 0.0949 µM
[12] = second compound 0.003 µM, first compound 0.3 µM
[13] = second compound 0.00949 µM, first compound 0.000949 µM
[14] = second compound 0.00949 µM, first compound 0.003 µM
[15] = second compound 0.00949 µM, first compound 0.00949 µM
[16] = second compound 0.00949 µM, first compound 0.03 µM
[17] = second compound 0.00949 µM, first compound 0.0949 µM
[18] = second compound 0.00949 µM, first compound 0.3 µM
[19] = second compound 0.03 µM, first compound 0.000949 µM
[20] = second compound 0.03 µM, first compound 0.003 µM
[21] = second compound 0.03 µM, first compound 0.00949 µM
[22] = second compound 0.03 µM, first compound 0.03 µM
[23] = second compound 0.03 µM, first compound 0.0949 µM
[24] = second compound 0.03 µM, first compound 0.3 µM
[25] = second compound 0.0949 µM, first compound 0.000949 µM
[26] = second compound 0.0949 µM, first compound 0.003 µM
[27] = second compound 0.0949 µM, first compound 0.00949 µM
[28] = second compound 0.0949 µM, first compound 0.03 µM
[29] = second compound 0.0949 µM, first compound 0.0949 µM
[30] = second compound 0.0949 µM, first compound 0.3 µM
[31] = second compound 0.3 µM, first compound 0.000949 µM
[32] = second compound 0.3 µM, first compound 0.003 µM
[33] = second compound 0.3 µM, first compound 0.00949 µM
[34] = second compound 0.3 µM, first compound 0.03 µM
[35] = second compound 0.3 µM, first compound 0.0949 µM
[36] = second compound 0.3 µM, first compound 0.3 µM
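Also: spheroids exposed to compound for seven days before readout.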
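For pIC50 in this document: luminescence signal used as a proxy for viable cells.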

In the case of `C=CC(=O)N1CCN(c2nc(OCC3CCCN3C)nc3c(F)c(-c4nc(N)cc(C)c4C(F)(F)F)c(Cl)cc23)C(C)C1` (stereo unspecified) + CCn1c(-c2cccnc2C(C)OC)c2c3cc(ccc31)N1CCOC(CC(NC(=O)C(C(C)C)N(C)C(=O)C3(F)CCN(C(=O)C#CC(C)(C)N(C)C)CC3)C(=O)N3CCCC(N3)C(=O)OCC(C)(C)C2)C1, the pIC50 (second compound 0.000949 µM) was > 8.50, the pIC50 (second compound 0.003 µM) was > 8.50 and the pIC50 (second compound 0.00949 µM) was > 8.50. For the same compound, the pIC50 (second compound 0.03 µM) was > 8.50, the pIC50 (second compound 0.0949 µM) was > 8.50 and the pIC50 (second compound 0.3 µM) was > 8.50. The viability, T/C (second compound 0.000949 µM, first compound 0.00316 µM) was 13.9%, the viability, T/C (second compound 0.000949 µM, first compound 0.01 µM) was 13.6% and the viability, T/C (second compound 0.000949 µM, first compound 0.0316 µM) was 13.3%. For the same compound, the viability, T/C (second compound 0.000949 µM, first compound 0.1 µM) was 14.4%, the viability, T/C (second compound 0.000949 µM, first compound 0.316 µM) was 15.2% and the viability, T/C (second compound 0.000949 µM, first compound 1 µM) was 15.5%. It also gave a viability, T/C (second compound 0.003 µM, first compound 0.00316 µM) of 12.5%, a viability, T/C (second compound 0.003 µM, first compound 0.01 µM) of 14.6% and a viability, T/C (second compound 0.003 µM, first compound 0.0316 µM) of 13.8%. It also gave a viability, T/C (second compound 0.003 µM, first compound 0.1 µM) of 13.8%, a viability, T/C (second compound 0.003 µM, first compound 0.316 µM) of 19.5% and a viability, T/C (second compound 0.003 µM, first compound 1 µM) of 15.4%. The viability, T/C (second compound 0.00949 µM, first compound 0.00316 µM) was 15.2%, the viability, T/C (second compound 0.00949 µM, first compound 0.01 µM) was 14.1% and the viability, T/C (second compound 0.00949 µM, first compound 0.0316 µM) was 12.8%. It also gave a viability, T/C (second compound 0.00949 µM, first compound 0.1 µM) of 14.5%, a viability, T/C (second compound 0.00949 µM, first compound 0.316 µM) of 14.1% and a viability, T/C (second compound 0.00949 µM, first compound 1 µM) of 14.4%. For the same compound, the viability, T/C (second compound 0.03 µM, first compound 0.00316 µM) was 13.6%, the viability, T/C (second compound 0.03 µM, first compound 0.01 µM) was 13.9% and the viability, T/C (second compound 0.03 µM, first compound 0.0316 µM) was 14.8%. For the same compound, the viability, T/C (second compound 0.03 µM, first compound 0.1 µM) was 13.3%, the viability, T/C (second compound 0.03 µM, first compound 0.316 µM) was 13.4% and the viability, T/C (second compound 0.03 µM, first compound 1 µM) was 15.1%. The viability, T/C (second compound 0.0949 µM, first compound 0.00316 µM) was 12.6%, the viability, T/C (second compound 0.0949 µM, first compound 0.01 µM) was 12.8% and the viability, T/C (second compound 0.0949 µM, first compound 0.0316 µM) was 11.9%. It also gave a viability, T/C (second compound 0.0949 µM, first compound 0.1 µM) of 12.3%, a viability, T/C (second compound 0.0949 µM, first compound 0.316 µM) of 12.9% and a viability, T/C (second compound 0.0949 µM, first compound 1 µM) of 12.4%. It also gave a viability, T/C (second compound 0.3 µM, first compound 0.00316 µM) of 9.04%, a viability, T/C (second compound 0.3 µM, first compound 0.01 µM) of 8.65% and a viability, T/C (second compound 0.3 µM, first compound 0.0316 µM) of 10.4%. For the same compound, the viability, T/C (second compound 0.3 µM, first compound 0.1 µM) was 13.6%, the viability, T/C (second compound 0.3 µM, first compound 0.316 µM) was 12.6% and the viability, T/C (second compound 0.3 µM, first compound 1 µM) was 11.6%.

In the case of `CC1(C)CCC(Nc2ncc(C(F)(F)F)c(-c3c[nH]c4c(P(C)(C)=O)c(C#N)ccc34)n2)CN1` (stereo unspecified) + CCn1c(-c2cccnc2C(C)OC)c2c3cc(ccc31)N1CCOC(CC(NC(=O)C(C(C)C)N(C)C(=O)C3(F)CCN(C(=O)C#CC(C)(C)N(C)C)CC3)C(=O)N3CCCC(N3)C(=O)OCC(C)(C)C2)C1, the pIC50 (second compound 0.000949 µM) was > 9.02, the pIC50 (second compound 0.003 µM) was > 9.02 and the pIC50 (second compound 0.00949 µM) was > 9.02. For the same compound, the pIC50 (second compound 0.03 µM) was > 9.02, the pIC50 (second compound 0.0949 µM) was > 9.02 and the pIC50 (second compound 0.3 µM) was > 9.02. The viability, T/C [1] was 12.7%, the viability, T/C [2] was 12.4% and the viability, T/C [3] was 13.2%. The viability, T/C [4] was 13.5%, the viability, T/C [5] was 14.6% and the viability, T/C [6] was 14.8%. The viability, T/C [7] was 12.1%, the viability, T/C [8] was 13.2% and the viability, T/C [9] was 12.7%. It also gave a viability, T/C [10] of 12.8%, a viability, T/C [11] of 15.4% and a viability, T/C [12] of 14.4%. For the same compound, the viability, T/C [13] was 10.9%, the viability, T/C [14] was 11.9% and the viability, T/C [15] was 12.1%. It also gave a viability, T/C [16] of 13.2%, a viability, T/C [17] of 14% and a viability, T/C [18] of 15.2%. The viability, T/C [19] was 10.8%, the viability, T/C [20] was 12.1% and the viability, T/C [21] was 12.3%. The viability, T/C [22] was 12.8%, the viability, T/C [23] was 13.3% and the viability, T/C [24] was 13.2%. It also gave a viability, T/C [25] of 10.3%, a viability, T/C [26] of 9.49% and a viability, T/C [27] of 11.1%. The viability, T/C [28] was 10.3%, the viability, T/C [29] was 11.1% and the viability, T/C [30] was 10.7%. The viability, T/C [31] was 7.95%, the viability, T/C [32] was 7.87% and the viability, T/C [33] was 7.86%. For the same compound, the viability, T/C [34] was 8.99%, the viability, T/C [35] was 9.92% and the viability, T/C [36] was 10.7%.

`CCc1c2c(nc3ccc(O)cc13)-c1cc3c(c(=O)n1C2)COC(=O)[C@]3(O)CC` + CCn1c(-c2cccnc2C(C)OC)c2c3cc(ccc31)N1CCOC(CC(NC(=O)C(C(C)C)N(C)C(=O)C3(F)CCN(C(=O)C#CC(C)(C)N(C)C)CC3)C(=O)N3CCCC(N3)C(=O)OCC(C)(C)C2)C1 was tested, and the pIC50 (second compound 0.000949 µM) was > 9.02, the pIC50 (second compound 0.003 µM) was > 9.02 and the pIC50 (second compound 0.00949 µM) was > 9.02. The pIC50 (second compound 0.03 µM) was > 9.02, the pIC50 (second compound 0.0949 µM) was > 9.02 and the pIC50 (second compound 0.3 µM) was > 9.02. For the same compound, the viability, T/C [1] was 13.8%, the viability, T/C [2] was 13.3% and the viability, T/C [3] was 11.2%. It also gave a viability, T/C [4] of 9.37%, a viability, T/C [5] of 6.34% and a viability, T/C [6] of 3.92%. It also gave a viability, T/C [7] of 15.5%, a viability, T/C [8] of 13.3% and a viability, T/C [9] of 11.8%. The viability, T/C [10] was 9.3%, the viability, T/C [11] was 6.04% and the viability, T/C [12] was 3.42%. The viability, T/C [13] was 13.6%, the viability, T/C [14] was 14.2% and the viability, T/C [15] was 11.6%. It also gave a viability, T/C [16] of 9.12%, a viability, T/C [17] of 6.47% and a viability, T/C [18] of 3.47%. The viability, T/C [19] was 12.1%, the viability, T/C [20] was 11.9% and the viability, T/C [21] was 11.2%. For the same compound, the viability, T/C [22] was 7.2%, the viability, T/C [23] was 4.9% and the viability, T/C [24] was 2.69%. It also gave a viability, T/C [25] of 12.8%, a viability, T/C [26] of 9.98% and a viability, T/C [27] of 10.1%. It also gave a viability, T/C [28] of 6.64%, a viability, T/C [29] of 4.22% and a viability, T/C [30] of 2.51%. The viability, T/C [31] was 10.2%, the viability, T/C [32] was 8.84% and the viability, T/C [33] was 7.66%. The viability, T/C [34] was 5.32%, the viability, T/C [35] was 3.16% and the viability, T/C [36] was 2.05%.
